Experimental data taken from ChEMBL document CHEMBL1152560, “Substituted 2-arylbenzothiazoles as kinase inhibitors: hit-to-lead optimization” (Bioorg Med Chem, 2009).

What was measured:
[1] = target: T1, Serine/threonine-protein kinase PLK4 (Homo sapiens) (UniProt O00444); assay: Residual activity of SAK at 10 uM by microplate scintillation counting
T1 sequence (whole entry): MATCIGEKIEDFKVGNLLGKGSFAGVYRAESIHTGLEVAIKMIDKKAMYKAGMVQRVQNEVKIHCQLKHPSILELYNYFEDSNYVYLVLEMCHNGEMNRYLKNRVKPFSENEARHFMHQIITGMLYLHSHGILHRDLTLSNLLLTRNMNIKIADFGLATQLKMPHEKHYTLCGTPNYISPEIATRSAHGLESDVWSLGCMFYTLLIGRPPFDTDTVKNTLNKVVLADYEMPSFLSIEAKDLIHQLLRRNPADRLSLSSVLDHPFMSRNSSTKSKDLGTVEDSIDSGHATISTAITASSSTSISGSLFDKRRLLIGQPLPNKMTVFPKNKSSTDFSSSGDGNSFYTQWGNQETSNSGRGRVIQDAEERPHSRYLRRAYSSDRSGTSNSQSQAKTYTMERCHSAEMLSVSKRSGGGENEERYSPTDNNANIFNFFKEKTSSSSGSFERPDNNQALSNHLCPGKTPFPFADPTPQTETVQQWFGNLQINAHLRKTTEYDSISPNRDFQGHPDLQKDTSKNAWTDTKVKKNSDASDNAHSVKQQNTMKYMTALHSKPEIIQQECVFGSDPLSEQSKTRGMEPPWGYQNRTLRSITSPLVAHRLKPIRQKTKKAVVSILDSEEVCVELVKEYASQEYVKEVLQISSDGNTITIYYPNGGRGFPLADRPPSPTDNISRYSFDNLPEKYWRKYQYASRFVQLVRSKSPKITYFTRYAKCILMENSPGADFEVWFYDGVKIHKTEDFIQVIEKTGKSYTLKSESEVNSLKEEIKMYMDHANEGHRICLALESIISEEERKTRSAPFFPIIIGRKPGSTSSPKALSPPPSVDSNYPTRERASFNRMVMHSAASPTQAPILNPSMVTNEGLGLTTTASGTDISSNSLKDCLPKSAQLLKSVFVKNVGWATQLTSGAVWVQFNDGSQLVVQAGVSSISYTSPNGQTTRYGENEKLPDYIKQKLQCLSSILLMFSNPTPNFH

[2] = target: Casein kinase I isoform gamma-2 (Homo sapiens) (UniProt P78368); assay: Residual activity of CK1gamma2 at 1 uM by microplate scintillation counting
Chain of Casein kinase I isoform gamma-2 (Homo sapiens) (P78368 whole entry, looked up, canonical isoform): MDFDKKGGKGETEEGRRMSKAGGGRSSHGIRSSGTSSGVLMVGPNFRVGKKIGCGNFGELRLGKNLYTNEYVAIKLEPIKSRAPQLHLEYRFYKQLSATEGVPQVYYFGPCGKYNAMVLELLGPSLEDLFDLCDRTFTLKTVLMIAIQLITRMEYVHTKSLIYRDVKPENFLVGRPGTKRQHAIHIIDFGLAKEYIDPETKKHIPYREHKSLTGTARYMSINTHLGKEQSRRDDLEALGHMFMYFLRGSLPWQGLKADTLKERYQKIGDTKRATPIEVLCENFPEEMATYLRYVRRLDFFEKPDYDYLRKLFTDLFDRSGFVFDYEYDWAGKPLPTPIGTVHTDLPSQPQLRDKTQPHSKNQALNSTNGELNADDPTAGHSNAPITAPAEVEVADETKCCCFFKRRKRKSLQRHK

[3] = target: Serine/threonine-protein kinase MRCK beta (Homo sapiens) (UniProt Q9Y5S2); assay: Residual activity of CDC42BPB at 1 uM by microplate scintillation counting
Chain of Serine/threonine-protein kinase MRCK beta (Homo sapiens) (Q9Y5S2 whole entry): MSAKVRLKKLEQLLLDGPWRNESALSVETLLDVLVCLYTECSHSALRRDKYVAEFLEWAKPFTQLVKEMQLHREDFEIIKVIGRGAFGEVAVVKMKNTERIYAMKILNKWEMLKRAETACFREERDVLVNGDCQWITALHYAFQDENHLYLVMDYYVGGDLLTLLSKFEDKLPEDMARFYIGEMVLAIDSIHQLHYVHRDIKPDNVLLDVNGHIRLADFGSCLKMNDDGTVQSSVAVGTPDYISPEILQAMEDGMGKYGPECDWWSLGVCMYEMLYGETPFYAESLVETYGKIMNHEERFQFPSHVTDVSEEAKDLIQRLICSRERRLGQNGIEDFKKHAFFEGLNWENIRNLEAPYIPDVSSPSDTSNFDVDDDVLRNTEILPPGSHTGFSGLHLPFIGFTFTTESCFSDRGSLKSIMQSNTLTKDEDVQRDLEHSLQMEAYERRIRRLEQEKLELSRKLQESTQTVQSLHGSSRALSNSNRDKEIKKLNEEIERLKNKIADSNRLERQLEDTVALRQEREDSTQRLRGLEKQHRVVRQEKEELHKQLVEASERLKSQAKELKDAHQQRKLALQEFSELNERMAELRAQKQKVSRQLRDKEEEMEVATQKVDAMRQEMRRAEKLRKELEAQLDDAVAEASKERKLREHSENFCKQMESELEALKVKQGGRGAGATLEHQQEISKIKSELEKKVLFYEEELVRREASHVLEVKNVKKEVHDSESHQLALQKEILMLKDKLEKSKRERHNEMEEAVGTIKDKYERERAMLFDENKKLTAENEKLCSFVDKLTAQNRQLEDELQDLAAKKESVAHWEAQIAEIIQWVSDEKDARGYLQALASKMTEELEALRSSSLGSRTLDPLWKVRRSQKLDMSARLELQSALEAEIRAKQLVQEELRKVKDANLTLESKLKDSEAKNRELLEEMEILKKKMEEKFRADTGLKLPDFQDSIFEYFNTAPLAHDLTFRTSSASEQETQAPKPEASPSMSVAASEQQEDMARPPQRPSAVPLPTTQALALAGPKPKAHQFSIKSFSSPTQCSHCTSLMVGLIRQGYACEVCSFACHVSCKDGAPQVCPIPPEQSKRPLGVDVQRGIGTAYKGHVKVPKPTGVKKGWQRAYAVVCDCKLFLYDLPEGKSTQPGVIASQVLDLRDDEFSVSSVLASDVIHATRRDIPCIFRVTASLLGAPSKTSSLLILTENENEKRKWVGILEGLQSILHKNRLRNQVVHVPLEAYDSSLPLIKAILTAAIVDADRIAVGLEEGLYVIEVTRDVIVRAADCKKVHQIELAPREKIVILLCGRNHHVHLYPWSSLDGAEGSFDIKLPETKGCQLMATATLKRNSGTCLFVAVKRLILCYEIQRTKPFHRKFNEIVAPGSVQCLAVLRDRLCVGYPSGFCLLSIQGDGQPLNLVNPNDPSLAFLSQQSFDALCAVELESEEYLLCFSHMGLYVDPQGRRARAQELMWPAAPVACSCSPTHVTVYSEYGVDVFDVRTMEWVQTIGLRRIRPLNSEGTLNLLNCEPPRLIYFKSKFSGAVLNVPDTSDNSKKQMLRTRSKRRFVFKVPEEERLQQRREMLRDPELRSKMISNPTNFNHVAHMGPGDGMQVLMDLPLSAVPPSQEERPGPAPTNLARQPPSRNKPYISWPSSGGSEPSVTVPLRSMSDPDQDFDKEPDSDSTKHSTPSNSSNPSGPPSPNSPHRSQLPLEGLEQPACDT

[4] = target: Tyrosine-protein kinase FRK (Homo sapiens) (UniProt P42685); assay: Residual activity of FRK at 1 uM by microplate scintillation counting
Chain of Tyrosine-protein kinase FRK (Homo sapiens) (P42685 whole entry): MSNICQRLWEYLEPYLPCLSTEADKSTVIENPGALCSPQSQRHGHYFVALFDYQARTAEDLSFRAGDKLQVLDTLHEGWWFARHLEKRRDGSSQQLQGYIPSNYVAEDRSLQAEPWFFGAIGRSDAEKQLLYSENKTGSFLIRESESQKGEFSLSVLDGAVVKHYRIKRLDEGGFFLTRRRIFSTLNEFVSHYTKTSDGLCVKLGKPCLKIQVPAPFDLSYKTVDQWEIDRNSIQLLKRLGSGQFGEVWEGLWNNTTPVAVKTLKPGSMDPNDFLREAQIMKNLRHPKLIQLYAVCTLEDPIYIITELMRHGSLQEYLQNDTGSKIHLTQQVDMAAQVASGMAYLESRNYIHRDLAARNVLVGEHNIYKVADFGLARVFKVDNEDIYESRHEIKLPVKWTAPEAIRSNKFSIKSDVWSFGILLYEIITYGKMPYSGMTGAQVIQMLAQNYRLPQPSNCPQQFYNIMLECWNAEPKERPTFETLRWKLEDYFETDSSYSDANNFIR

[5] = target: Fibroblast growth factor receptor 3 (Homo sapiens) (UniProt P22607); assay: Residual activity of FGFR3 at 1 uM by microplate scintillation counting
Chain of Fibroblast growth factor receptor 3 (Homo sapiens) (P22607 23-806 limits assumed): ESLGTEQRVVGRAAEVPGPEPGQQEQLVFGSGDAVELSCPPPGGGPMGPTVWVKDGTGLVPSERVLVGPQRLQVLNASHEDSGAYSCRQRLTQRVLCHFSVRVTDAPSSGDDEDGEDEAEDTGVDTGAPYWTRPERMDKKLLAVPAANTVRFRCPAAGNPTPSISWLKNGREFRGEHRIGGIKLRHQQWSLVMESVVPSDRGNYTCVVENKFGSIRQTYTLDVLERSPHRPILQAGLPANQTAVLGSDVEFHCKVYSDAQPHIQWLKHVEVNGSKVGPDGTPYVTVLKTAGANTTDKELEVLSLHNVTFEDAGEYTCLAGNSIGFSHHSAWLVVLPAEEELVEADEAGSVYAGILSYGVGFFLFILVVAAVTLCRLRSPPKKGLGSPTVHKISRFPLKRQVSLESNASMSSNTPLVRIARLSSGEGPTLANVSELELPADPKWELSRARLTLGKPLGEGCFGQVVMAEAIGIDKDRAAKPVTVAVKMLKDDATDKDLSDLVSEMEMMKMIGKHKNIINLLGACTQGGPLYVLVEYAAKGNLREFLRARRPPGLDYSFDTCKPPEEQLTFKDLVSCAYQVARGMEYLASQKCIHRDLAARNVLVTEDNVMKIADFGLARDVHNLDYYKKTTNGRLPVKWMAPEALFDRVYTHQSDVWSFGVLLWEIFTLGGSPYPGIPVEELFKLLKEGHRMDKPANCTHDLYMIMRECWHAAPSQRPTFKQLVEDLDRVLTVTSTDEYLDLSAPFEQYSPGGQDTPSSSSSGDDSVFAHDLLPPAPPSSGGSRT

[6] = target: SRSF protein kinase 2 (Homo sapiens) (UniProt P78362); assay: Residual activity of SRPK2 at 1 uM by microplate scintillation counting
Chain of SRSF protein kinase 2 (Homo sapiens) (P78362 whole entry, looked up): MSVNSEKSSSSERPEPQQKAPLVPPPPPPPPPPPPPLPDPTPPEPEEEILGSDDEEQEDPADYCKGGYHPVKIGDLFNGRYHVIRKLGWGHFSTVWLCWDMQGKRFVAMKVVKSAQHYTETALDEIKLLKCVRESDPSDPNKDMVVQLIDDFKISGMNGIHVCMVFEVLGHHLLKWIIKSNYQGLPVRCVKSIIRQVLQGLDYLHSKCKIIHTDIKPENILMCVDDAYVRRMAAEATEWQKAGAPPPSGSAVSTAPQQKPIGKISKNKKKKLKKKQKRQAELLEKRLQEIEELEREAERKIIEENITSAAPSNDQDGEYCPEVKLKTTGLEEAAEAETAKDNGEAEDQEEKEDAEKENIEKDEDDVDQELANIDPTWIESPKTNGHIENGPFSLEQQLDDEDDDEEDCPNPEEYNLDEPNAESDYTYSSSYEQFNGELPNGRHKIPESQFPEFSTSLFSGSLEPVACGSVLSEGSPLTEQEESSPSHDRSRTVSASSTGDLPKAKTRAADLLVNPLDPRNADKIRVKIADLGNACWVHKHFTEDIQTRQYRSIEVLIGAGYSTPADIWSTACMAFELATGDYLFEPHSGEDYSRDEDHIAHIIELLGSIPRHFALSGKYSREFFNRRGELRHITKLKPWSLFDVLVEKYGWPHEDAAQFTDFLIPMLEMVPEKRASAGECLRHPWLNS

[7] = target: T2, NUAK family SNF1-like kinase 1 (Homo sapiens) (UniProt O60285); assay: Residual activity of ARK5 at 1 uM by microplate scintillation counting
T2 sequence (whole entry): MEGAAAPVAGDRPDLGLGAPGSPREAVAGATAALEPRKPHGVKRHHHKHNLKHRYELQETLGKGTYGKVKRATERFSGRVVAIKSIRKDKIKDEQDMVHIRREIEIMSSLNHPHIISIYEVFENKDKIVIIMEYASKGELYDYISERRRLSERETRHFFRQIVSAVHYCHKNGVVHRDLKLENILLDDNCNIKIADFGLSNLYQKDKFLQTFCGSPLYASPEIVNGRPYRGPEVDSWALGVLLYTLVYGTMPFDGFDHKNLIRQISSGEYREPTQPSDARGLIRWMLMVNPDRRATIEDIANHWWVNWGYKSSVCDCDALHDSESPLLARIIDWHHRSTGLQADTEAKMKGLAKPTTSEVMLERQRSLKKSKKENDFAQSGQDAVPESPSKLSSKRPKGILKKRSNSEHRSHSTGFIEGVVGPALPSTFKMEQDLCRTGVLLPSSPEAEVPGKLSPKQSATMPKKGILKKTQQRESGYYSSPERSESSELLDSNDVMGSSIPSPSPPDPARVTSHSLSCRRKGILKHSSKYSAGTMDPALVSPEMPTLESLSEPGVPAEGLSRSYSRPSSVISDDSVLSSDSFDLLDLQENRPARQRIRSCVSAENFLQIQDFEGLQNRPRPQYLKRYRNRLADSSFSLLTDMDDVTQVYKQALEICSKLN

[8] = target: T3, Aurora kinase C (Homo sapiens) (UniProt Q9UQB9); assay: Residual activity of Aurora-C at 1 uM by microplate scintillation counting
T3 sequence (whole entry): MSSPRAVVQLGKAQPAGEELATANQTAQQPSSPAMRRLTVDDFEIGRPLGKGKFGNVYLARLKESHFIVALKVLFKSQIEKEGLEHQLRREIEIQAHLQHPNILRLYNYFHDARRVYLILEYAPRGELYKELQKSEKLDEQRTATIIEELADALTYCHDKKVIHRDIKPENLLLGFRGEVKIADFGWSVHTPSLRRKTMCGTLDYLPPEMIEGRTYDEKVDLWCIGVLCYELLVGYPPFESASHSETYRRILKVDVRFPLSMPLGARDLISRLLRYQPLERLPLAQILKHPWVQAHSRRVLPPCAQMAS

[9] = target: T4, Serine/threonine-protein kinase 3 (Homo sapiens) (UniProt Q13188); assay: Residual activity of MST2 at 1 uM by microplate scintillation counting
T4 sequence (whole entry): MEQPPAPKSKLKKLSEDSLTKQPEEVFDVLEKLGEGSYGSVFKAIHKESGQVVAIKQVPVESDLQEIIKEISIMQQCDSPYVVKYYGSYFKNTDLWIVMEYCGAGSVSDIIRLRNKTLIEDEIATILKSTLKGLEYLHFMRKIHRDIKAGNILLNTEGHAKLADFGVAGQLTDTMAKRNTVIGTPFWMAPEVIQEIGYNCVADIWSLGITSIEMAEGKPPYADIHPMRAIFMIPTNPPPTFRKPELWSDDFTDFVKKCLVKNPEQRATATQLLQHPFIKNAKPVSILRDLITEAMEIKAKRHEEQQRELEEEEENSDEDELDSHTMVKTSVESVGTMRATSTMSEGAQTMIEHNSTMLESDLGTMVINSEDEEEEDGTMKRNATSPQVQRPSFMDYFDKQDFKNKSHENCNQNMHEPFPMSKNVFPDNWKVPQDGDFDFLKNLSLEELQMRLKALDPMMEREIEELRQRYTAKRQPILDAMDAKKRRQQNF

With COc1cc2c(Oc3ccc(-c4nc5ccccc5s4)cc3)ncnc2cc1OCCCN1CCN(C)CC1 the residual activity [1] was 1%, the residual activity [2] was 98% and the residual activity [3] was 100%. For the same compound, the residual activity [4] was 84%, the residual activity [5] was 90% and the residual activity [6] was 115%. The residual activity [7] was 88%, the residual activity [8] was 11% and the residual activity [9] was 67%.
COc1cc2c(Oc3ccc(-c4nc5ccccc5s4)cc3)ncnc2cc1OCCCN1CCCC1 was tested, and the residual activity [1] was 1%, the residual activity [2] was 107% and the residual activity [3] was 99%. The residual activity [4] was 95%, the residual activity [5] was 98% and the residual activity [6] was 97%. The residual activity [7] was 91%, the residual activity [8] was 7% and the residual activity [9] was 66%.
Work on COc1cc2c(Oc3ccc(-c4nc5ccccc5s4)cc3F)ncnc2cc1OCCCN1CCN(C)CC1 yielded a residual activity [1] of 1%, a residual activity [2] of 100% and a residual activity [3] of 90%. For the same compound, the residual activity [4] was 90%, the residual activity [5] was 88% and the residual activity [6] was 107%. The residual activity [7] was 101%, the residual activity [8] was 10% and the residual activity [9] was 86%.
